Results as given in patent publication US9045423B2, “Prophylactic and/or therapeutic agent for anemia comprising tetrahydroquinoline compound as active ingredient” (KOWA COMPANY, LTD., priority 2009, dated 2015).

What was measured:
[1] = system: K562 cells, a human proerythroblast cell line; experiment: Hemoglobin production in K562 cells (fluorescence of the porphyrin ring); assay type: cell-based; details: Homo sapiens, K562, 144 h; 6 μM test compound, 3 + 3 days incubation; non-stimulated state without compound = 100; read-out: amount of hemoglobin, % of control (6 μM)
Procedure: K562 cells (obtained from ATCC), which is a human proerythroblast cell line, were inoculated at a concentration of 1×10^5 cells/1 mL in each well of a 24-well plate, using complete medium (RPMI-1640 medium containing 10% bovine fetal serum), and 1 μL of a test compound at a 1000-fold concentration was added to each well. Subsequently, the cells were incubated for 3 days in a CO2 incubator (37° C., 5% CO2). The medium was exchanged, and the cells were further incubated for 3 days. The cells were collected and counted. Subsequently, the amount of hemoglobin produced in the cells was determined by adjusting the number of cells to 3×10^5 cells, and measuring the fluorescence of the porphyrin ring. That is, the cells collected by centrifugation were suspended in 500 μL of 2 M oxalic acid, and were heated to boil for 30 minutes. The cells were cooled, and then the fluorescence intensity was measured by using a fluorescence microplate reader (Spectra MAX GeminiEM; Molecular Devices Corp.) ([…]). The amount of hemoglobin in a non-stimulated state where no compound was added was designated as 100-, and the amount of hemoglobin (% of control) produced as induced by each of the compounds was determined.

[2] = system: HepG2 cells derived from human liver cancer; experiment: EPO production in HepG2 cells (EPO ELISA of culture supernatant); assay type: cell-based; details: Homo sapiens; for activity at 3 µM: HepG2, 3 μM test compound, 48 hrs, 4% oxygen, non-stimulated state without compound = 100%, read-out: amount of EPO production, % of control (3 μM); for activity at 10 µM: HepG2, 48 h, final concentration 10 μM, non-stimulated state = 100%, read-out: enhancement of EPO production
Procedure: HepG2 cells derived from human liver cancer were inoculated in an amount of 5×10^4 cells per well on a 48-well plate, using minimum essential medium (MEM, Sigma-Aldrich Company) containing 10% bovine fetal serum. On the next day, the medium was exchanged with Dulbecco's modified eagle medium (DMEM (Sigma-Aldrich Company)) containing 10% bovine fetal serum without Phenol Red. Then, a test compound dissolved in DMSO was added thereto to obtain a final concentration of 3 μM or 10 μM, and the amount of medium was adjusted to 400 μL per well. The cells were incubated for 48 hrs in a CO2 incubator in which the oxygen concentration was adjusted to 4%, and then the culture supernatant was collected. The EPO concentration in the culture supernatant was immediately measured using an EPO ELISA kit (Roche Diagnostics GmbH). The method was carried out according to the operation manual.
The amount of EPO production in a non-stimulated state where no compounds were added, was designated as 100%, and the amount of EPO production (% of control) induced by each of the compounds was determined.

In the case of CNC(=O)c1ccc2c(c1)C(Oc1ccc(N3CCOCC3)cc1)CC(C)N2C(C)=O (stereo not shown) [Compound 140, 1-Acetyl-N,2-dimethyl-4-(4-morpholinophenoxy)-1,2,3,4-tetrahydroquinoline-6-carboxamide], the activity at 6 µM [1] is reported as 231% and the activity at 3 µM [2] is reported as 124%.
Compound CCOC(=O)c1ccc2c(c1)C(Nc1ccc(-c3ncco3)cc1)CC(C)N2C(C)=O (stereo not shown) [Compound 167, Ethyl 1-Acetyl-2-methyl-4-{[4-(oxazol-2-yl)phenyl]-amino}-1,2,3,4-tetrahydroquinoline-6-carboxylate] has an activity at 6 µM [1] of 227% and an activity at 10 µM [2] of 142%.
Work on CC(=O)N1c2ccc(C(N)=O)cc2C(Nc2cccc(N3CCOCC3)c2)CC1C (stereo not shown) [Compound 181, 1-Acetyl-2-methyl-4-[(3-morpholinophenyl)amino]-1,2,3,4-tetrahydroquinoline-6-carboxamide] yielded an activity at 6 µM [1] of 382% and an activity at 3 µM [2] of 162%.
CONC(=O)c1ccc2c(c1)C(Nc1ccc(N3CCOCC3)cc1)CC(C)N2C(C)=O (stereo not shown) [Compound 135, 1-Acetyl-4-[(4-morpholinophenyl)-amino]-N-methoxy-2-methyl-1,2,3,4-tetrahydroquinoline-6-carboxamide] showed an activity at 6 µM [1] of 178% and an activity at 3 µM [2] of 124%.
Work on CC(=O)N1c2ccccc2C(Nc2ccc3ocnc3c2)CC1C (stereo not shown) [Compound 136, 1-Acetyl-4-[(benzoxazol-5-yl)-amino]-2-methyl-1,2,3,4-tetrahydroquinoline] yielded an activity at 6 µM [1] of 136% and an activity at 3 µM [2] of 141%.
Compound CC(=O)N1c2ccc(C(=O)NC(=O)c3ccccc3)cc2C(Nc2ccc(N3CCOCC3)cc2)CC1C (stereo not shown) [Compound 166, 1-Acetyl-N-benzoyl-2-methyl-4-[(4-morpholinophenyl)-amino]-1,2,3,4-tetrahydroquinoline-6-carboxamide] has an activity at 6 µM [1] of 282% and an activity at 3 µM [2] of 185%.
Work on CNC(=O)c1ccc2c(c1)C(Nc1ccc(-c3csc(C)n3)cc1)CC(C)N2C(C)=O (stereo not shown) [Compound 165, 1-Acetyl-N,2-dimethyl-4-{[4-(2-methylthiazol-4-yl)phenyl]amino}-1,2,3,4-tetrahydroquinoline-6-carboxamide] yielded an activity at 6 µM [1] of 304% and an activity at 10 µM [2] of 159%.
For CC(=O)N1c2ccc(C(N)=O)cc2C(Nc2ccc(-c3csc(C)n3)cc2)CC1C (stereo not shown) [Compound 164, 1-Acetyl-2-methyl-4-{[4-(2-methylthiazol-4-yl)-phenyl]amino}-1,2,3,4-tetrahydroquinoline-6-carboxamide], the activity at 6 µM [1] was 367% and the activity at 3 µM [2] was 336%.
In the case of CC(=O)N1c2ccc(C(=O)NO)cc2C(Nc2ccc(Cl)cc2)CC1C (stereo not shown) [Compound 129, 1-Acetyl-4-[(4-chlorophenyl)-amino]-N-hydroxy-2-methyl-1,2,3,4-tetrahydroquinoline-6-carboxamide], the activity at 6 µM [1] is reported as 136% and the activity at 3 µM [2] is reported as 125%.
Compound CC(=O)NC(=O)c1ccc2c(c1)C(Nc1ccc(N3CCOCC3)cc1)CC(C)N2C(C)=O (stereo not shown) [Compound 175, N,1-diacetyl-2-methyl-4-[(4-morpholinophenyl)amino]-1,2,3,4-tetrahydroquinoline-6-carboxamide] has an activity at 6 µM [1] of 275% and an activity at 3 µM [2] of 270%.
Work on CC(=O)N1c2ccc(C(=O)NCCOCCOCCOCCC(=O)OC(C)(C)C)cc2C(Nc2ccc(N3CCOCC3)cc2)CC1C (stereo not shown) [Compound 149, Tert-butyl 12-{1-Acetyl-2-methyl-4-[(4-morpholinophenyl)-amino]-1,2,3,4-tetrahydroquinoline-6-carboxamido}-4,7,10-trioxadodecanoate] yielded an activity at 6 µM [1] of 367% and an activity at 3 µM [2] of 190%.
CC(=O)N1c2ccc(C(=O)NC#N)cc2C(Nc2ccc(Cl)cc2)CC1C (stereo not shown) [Compound 128, 1-Acetyl-4-[(4-chlorophenyl)-amino]-N-cyano-2-methyl-1,2,3,4-tetrahydroquinoline-6-carboxamide] showed an activity at 6 µM [1] of 120% and an activity at 3 µM [2] of 176%.
Compound CC(=O)N1c2ccc(C(=O)Nc3ccccn3)cc2C(Nc2ccc(N3CCOCC3)cc2)CC1C (stereo not shown) [Compound 177, 1-Acetyl-2-methyl-4-[(4-morpholinophenyl)-amino]-N-(pyridin-2-yl)-1,2,3,4-tetrahydroquinoline-6-carboxamide] has an activity at 6 µM [1] of 353% and an activity at 3 µM [2] of 265%.
For CC(=O)N1c2ccc(N3CCOCC3)cc2C(Oc2ccc(Cl)cc2)CC1C (stereo not shown) [Compound 152, 1-Acetyl-4-(4-chloro-phenoxy)-2-methyl-6-morpholino-1,2,3,4-tetrahydroquinoline], the activity at 6 µM [1] was 337% and the activity at 3 µM [2] was 186%.
Work on CC(=O)N1c2ccc(C(=O)O)cc2C(Nc2ccc(C3CCOCC3)cc2)CC1C (stereo not shown) [Compound 154, 1-Acetyl-2-methyl-4-{[4-(tetrahydro-2H-pyran-4-yl)-phenyl]amino}-1,2,3,4-tetrahydroquinoline-6-carboxylic acid] yielded an activity at 6 µM [1] of 320% and an activity at 3 µM [2] of 116%.
Work on CNC(=O)c1ccc2c(c1)C(Nc1ccc(N3CCOCC3)cc1)CC(C)N2C(C)=O (stereo not shown) [Compound 132, 1-Acetyl-4-[(4-morpholinophenyl)-amino]-N,2-dimethyl-1,2,3,4-tetrahydroquinoline-6-carboxamide] yielded an activity at 6 µM [1] of 198% and an activity at 3 µM [2] of 208%.
CC(=O)N1c2ccc(C(N)=O)cc2C(Nc2ccc(-c3cnns3)cc2)CC1C (stereo not shown) [Compound 173, 1-Acetyl-2-methyl-4-{[4-(1,2,3-thiadiazol-5-yl)-phenyl]amino}-1,2,3,4-tetrahydroquinoline-6-carboxamide] showed an activity at 6 µM [1] of 158% and an activity at 3 µM [2] of 323%.
For CC(=O)N1c2ccc(C(N)=O)cc2C(Oc2ccc(Cl)cc2)CC1C (stereo not shown) [Compound 142, 1-Acetyl-4-(4-chlorophenoxy)-2-methyl-1,2,3,4-tetrahydro-quinoline-6-carboxamide], the activity at 6 µM [1] was 478% and the activity at 3 µM [2] was 129%.
Compound CC(=O)N1c2ccc(C(=O)O)cc2C(Nc2ccc(C3CCCCC3)cc2)CC1C (stereo not shown) [Compound 145, 1-Acetyl-4-[(4-cyclohexylphenyl)-amino]-2-methyl-1,2,3,4-tetrahydroquinoline-6-carboxylic acid] has an activity at 6 µM [1] of 414% and an activity at 10 µM [2] of 157%.
In the case of COC(=O)CCCc1ccc(NC(=O)c2ccc3c(c2)C(Nc2ccc(N4CCOCC4)cc2)CC(C)N3C(C)=O)cc1 (stereo not shown) [Compound 151, Methyl 4-(4-{1-Acetyl-2-methyl-4-[(4-morpholinophenyl)-amino]-1,2,3,4-tetrahydroquinoline-6-carboxamido}-phenyl)butanoate], the activity at 6 µM [1] is reported as 341% and the activity at 3 µM [2] is reported as 110%.
CC(=O)N1c2ccc(C(=O)NN)cc2C(Nc2ccc(N3CCOCC3)cc2)CC1C (stereo not shown) [Compound 133, 1-Acetyl-4-[(4-morpholinophenyl)-amino]-2-methyl-1,2,3,4-tetrahydroquinoline-6-carbohydrazide] showed an activity at 6 µM [1] of 136% and an activity at 3 µM [2] of 113%.
CC(=O)N1c2ccc(C(=O)NCCO)cc2C(Nc2ccc(Cl)cc2)CC1C (stereo not shown) [Compound 126, 1-Acetyl-4-[(4-chlorophenyl)-amino]-N-(2-hydroxyethyl)-2-methyl-1,2,3,4-tetrahydroquinoline-6-carboxamide] showed an activity at 6 µM [1] of 124% and an activity at 3 µM [2] of 161%.
For CC(=O)N1c2ccc(C(N)=O)cc2C(Nc2ccc(-c3ncco3)cc2)CC1C (stereo not shown) [Compound 169, 1-Acetyl-2-methyl-4-{[4-(oxazol-2-yl)phenyl]amino}-1,2,3,4-tetrahydroquinoline-6-carboxamide], the activity at 6 µM [1] was 243% and the activity at 10 µM [2] was 120%.
